The first assay has as its target Amyloid-beta precursor protein (Homo sapiens) (UniProt P05067). Nature of the assay: Inhibition of A-beta-42 production by inhibiting Gamma-secretase proteolytic pathway in HEK293 cell stably transfected with a double mutant form of human APP(K595N/M596L), at 2.5 uM concentration. It counts as cell-based.
Amyloid-beta precursor protein (Homo sapiens), sequence (P05067 whole entry): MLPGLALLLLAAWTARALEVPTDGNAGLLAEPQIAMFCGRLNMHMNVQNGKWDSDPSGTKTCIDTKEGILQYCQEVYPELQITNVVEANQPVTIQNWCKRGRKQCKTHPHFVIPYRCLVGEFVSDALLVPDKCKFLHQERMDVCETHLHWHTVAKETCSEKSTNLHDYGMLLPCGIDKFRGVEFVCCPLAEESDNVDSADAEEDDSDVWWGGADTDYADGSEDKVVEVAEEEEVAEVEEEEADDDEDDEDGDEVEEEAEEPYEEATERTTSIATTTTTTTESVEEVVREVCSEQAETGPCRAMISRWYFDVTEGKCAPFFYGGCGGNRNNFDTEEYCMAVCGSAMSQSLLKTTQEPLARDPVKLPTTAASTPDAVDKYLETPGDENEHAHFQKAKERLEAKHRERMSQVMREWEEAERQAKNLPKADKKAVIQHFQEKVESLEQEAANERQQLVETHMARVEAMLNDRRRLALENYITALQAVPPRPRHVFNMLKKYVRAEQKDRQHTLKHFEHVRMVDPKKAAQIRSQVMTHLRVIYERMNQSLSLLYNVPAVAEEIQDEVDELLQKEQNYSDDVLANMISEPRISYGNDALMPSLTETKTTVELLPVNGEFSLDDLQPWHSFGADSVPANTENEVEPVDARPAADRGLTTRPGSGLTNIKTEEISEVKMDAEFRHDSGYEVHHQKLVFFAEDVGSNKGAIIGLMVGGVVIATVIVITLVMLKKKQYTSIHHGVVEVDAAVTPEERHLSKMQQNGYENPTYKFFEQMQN
For the compound `CC1(C)[C@H]2CC[C@](C)(C2)[C@H]1NS(=O)(=O)c1ccc(F)cc1`, the inhibition was determined as 19%.
Same read-out and setting: for `CC12CC[C@@H](C1)C(C)(C)[C@@H]2NS(=O)(=O)c1ccc(Br)cc1` the value was 24%; for `CC1(C)[C@@H]2CC[C@@](C)(C2)[C@H]1NS(=O)(=O)c1ccc(F)cc1`, 0%; for `CC12CC[C@@H](C1)C(C)(C)[C@@H]2NS(=O)(=O)c1ccc(F)cc1` (single isomer, unassigned; (+)), 58%.
Still for that read-out and setting: then `CC12CC[C@@H](C1)C(C)(C)[C@@H]2NS(=O)(=O)c1cccs1`, with 47%.
Regarding `CC12CCC(C1)C(C)(C)C2NS(=O)(=O)c1ccc(F)cc1` (stereo not drawn), the inhibition is 31%.
On the same count and under the same terms, then `CC12CC[C@@H](C1)C(C)(C)[C@H]2NS(=O)(=O)c1ccc(F)cc1`, with 0%; and `CC12CC[C@@H](C1)C(C)(C)[C@@H]2NS(=O)(=O)c1ccc(Cl)cc1`, with 26%.

A further assay shares this target. In words: Observed stimulation of the production of soluble beta-amyloid precursor protein. It counts as functional.
As to `CC12CC[C@@H](C1)C(C)(C)[C@@H]2NS(=O)(=O)c1ccc(Br)cc1`, the Stimulation came out at 0%.
The same measure, in the same setting: for `CC12CC[C@@H](C1)C(C)(C)[C@@H]2NS(=O)(=O)c1ccc(F)cc1` (single isomer, unassigned; (+)) the value was 23%; for `CC12CC[C@@H](C1)C(C)(C)[C@@H]2NS(=O)(=O)c1cccs1`, 32%.
With `CC12CCC(C1)C(C)(C)C2NS(=O)(=O)c1ccc(F)cc1` (stereo not drawn), the Stimulation was 20%.
The same measure, in the same setting: for `CC12CC[C@@H](C1)C(C)(C)[C@@H]2NS(=O)(=O)c1ccc(Cl)cc1` the value was 0%.

The term inhibition denotes the percentage by which the read-out fell short of the control. The low end stands for a response near the control, the high end for a response far below the control.
